Laboratory results published in patent US7514448B2, “Azaindoles useful as inhibitors of rock and other protein kinases” (Vertex Pharmaceuticals Incorporated, priority 2004, dated 2009).

Assays:
Assay type in all cases: biochemical
ROCK I (AA 6-553) = ROCK I (AA 6-553) (Homo sapiens, UniProt Q13464); assay: ROCK inhibition assay, coupled enzyme system ("Enzyme"); conditions: enzyme-linked assay; average Ki if more than one determined
Protocol: Reactions were carried out in a solution containing 100 mM HEPES (pH 7.5), 10 mM MgCl2, 25 mM NaCl, 2 mM DTT and 1.5% DMSO.
(§1) If more than one value of Ki has been determined, the average Ki is indicated. If no value is indicated, then the Ki was not determined.

PKA = PKA (Homo sapiens, UniProt P17612); assay: PKA inhibition assay, coupled enzyme; conditions: average Ki if more than one determined
In short: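 Coupled PK/LDH assay following NADH depletion: 18 nM PKA, 50 μM ATP, 80 μM Kemptide in 100 mM HEPES pH 7.5, 10 mM MgCl2, 25 mM NaCl, 1 mM DTT, 3% DMSO, at 30 °C. Compound preincubated 10 min before ATP start; initial rates over 15 min, IC50 and Ki by non-linear regression.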

Itk = target: T1, Itk (Homo sapiens, UniProt Q08881); assay: Itk inhibition assay, coupled enzyme; conditions: average Ki if more than one determined
T1 sequence (Q08881 1-620): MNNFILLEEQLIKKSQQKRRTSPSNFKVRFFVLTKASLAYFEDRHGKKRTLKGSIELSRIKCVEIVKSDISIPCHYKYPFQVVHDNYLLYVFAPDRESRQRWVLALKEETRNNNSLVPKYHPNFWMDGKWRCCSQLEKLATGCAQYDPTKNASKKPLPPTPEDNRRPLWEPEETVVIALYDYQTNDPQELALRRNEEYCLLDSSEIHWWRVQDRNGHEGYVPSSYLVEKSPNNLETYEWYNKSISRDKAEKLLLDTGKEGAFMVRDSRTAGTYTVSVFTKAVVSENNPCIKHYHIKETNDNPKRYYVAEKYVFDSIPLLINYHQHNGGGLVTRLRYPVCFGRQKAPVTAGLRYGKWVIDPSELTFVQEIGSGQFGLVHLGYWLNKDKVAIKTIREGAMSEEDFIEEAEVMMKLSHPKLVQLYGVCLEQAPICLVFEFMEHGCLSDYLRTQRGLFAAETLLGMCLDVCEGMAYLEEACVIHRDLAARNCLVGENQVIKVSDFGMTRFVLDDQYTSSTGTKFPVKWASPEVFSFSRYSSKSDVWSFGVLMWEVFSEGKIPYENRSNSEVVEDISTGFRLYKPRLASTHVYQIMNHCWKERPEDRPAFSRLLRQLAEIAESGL
Protocol: Compounds were screened for their ability to inhibit Itk using a standard coupled enzyme assay (Fox et al., Protein Sci., (1998) 7, 2249). Assays were carried out in a mixture of 20 mM MOPS (pH 7.0), 10 mM MgCl2, 0.1% BSA, 1 mM DTT, 2.5 mM phosphoenolpyruvate, 300 μM NADH, 30 μg/ml pyruvate kinase and 10 μg/ml lactate dehydrogenase. Final substrate concentrations in the assay were 100 μM ATP (Sigma Chemicals) and 3 μM peptide (Biotinylated SAM68 D332-443). Assays were carried out at 25° C. and in the presence of 100 nM Itk.
An assay stock buffer solution was prepared containing all of the reagents listed above, with the exception of ATP and the test compound of interest. 60 μl of the stock solution was placed in a 96 well plate followed by addition of 2 μl of DMSO stock containing serial dilutions of the test compound (typically starting from a final concentration of 15 μM). The plate was preincubated for 10 minutes at 25° C. and the reaction initiated by addition of 5 μl of ATP. Initial reaction rates were determined with a Molecular Devices SpectraMax Plus plate reader over a 10 minute time course. IC50 and Ki data were calculated from non-linear regression analysis using the Prism software package (GraphPad Prism version 3.0cx for Macintosh, GraphPad Software, San Diego Calif., USA).

ROCK = ROCK (Homo sapiens, UniProt Q13464); assay: ROCK radioactive assay ("33P"); conditions: radioactive assay; average Ki if more than one determined; read-out: ROCK 33P Ki
ROCK, sequence (Q13464 whole entry): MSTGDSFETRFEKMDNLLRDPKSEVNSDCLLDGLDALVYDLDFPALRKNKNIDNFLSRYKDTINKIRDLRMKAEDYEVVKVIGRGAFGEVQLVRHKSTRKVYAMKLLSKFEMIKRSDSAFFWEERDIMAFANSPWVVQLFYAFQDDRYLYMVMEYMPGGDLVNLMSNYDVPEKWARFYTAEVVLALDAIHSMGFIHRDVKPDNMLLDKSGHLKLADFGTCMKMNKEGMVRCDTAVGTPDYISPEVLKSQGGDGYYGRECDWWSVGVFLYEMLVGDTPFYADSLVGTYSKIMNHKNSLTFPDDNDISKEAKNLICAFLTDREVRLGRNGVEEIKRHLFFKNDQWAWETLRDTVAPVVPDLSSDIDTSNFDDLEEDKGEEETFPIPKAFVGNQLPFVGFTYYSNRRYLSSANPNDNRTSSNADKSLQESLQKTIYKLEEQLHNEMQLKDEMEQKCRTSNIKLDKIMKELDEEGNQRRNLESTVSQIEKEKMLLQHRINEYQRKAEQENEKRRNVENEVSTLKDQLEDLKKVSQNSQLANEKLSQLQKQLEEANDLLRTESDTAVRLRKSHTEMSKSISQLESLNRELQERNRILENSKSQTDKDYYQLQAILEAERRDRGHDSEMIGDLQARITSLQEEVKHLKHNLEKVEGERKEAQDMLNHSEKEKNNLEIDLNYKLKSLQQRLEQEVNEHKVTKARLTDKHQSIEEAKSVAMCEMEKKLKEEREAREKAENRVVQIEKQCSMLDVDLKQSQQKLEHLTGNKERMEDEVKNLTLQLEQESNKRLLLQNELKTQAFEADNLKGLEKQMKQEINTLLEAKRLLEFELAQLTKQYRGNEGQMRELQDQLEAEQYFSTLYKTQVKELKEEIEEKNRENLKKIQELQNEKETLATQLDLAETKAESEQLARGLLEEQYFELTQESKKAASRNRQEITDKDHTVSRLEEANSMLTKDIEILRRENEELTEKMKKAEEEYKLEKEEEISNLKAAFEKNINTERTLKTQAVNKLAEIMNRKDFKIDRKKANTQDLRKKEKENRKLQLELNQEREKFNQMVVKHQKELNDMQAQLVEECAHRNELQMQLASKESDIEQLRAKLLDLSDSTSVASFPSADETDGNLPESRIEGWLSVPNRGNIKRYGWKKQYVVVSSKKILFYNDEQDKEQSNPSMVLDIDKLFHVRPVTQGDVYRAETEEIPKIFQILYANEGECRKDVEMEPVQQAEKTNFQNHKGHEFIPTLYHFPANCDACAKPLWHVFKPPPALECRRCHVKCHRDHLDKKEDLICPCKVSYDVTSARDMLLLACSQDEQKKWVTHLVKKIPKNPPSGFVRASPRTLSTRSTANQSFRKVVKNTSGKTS
Description: as §1

ROCK I (AA 6-553), sequence (Q13464 6-553, species assumed): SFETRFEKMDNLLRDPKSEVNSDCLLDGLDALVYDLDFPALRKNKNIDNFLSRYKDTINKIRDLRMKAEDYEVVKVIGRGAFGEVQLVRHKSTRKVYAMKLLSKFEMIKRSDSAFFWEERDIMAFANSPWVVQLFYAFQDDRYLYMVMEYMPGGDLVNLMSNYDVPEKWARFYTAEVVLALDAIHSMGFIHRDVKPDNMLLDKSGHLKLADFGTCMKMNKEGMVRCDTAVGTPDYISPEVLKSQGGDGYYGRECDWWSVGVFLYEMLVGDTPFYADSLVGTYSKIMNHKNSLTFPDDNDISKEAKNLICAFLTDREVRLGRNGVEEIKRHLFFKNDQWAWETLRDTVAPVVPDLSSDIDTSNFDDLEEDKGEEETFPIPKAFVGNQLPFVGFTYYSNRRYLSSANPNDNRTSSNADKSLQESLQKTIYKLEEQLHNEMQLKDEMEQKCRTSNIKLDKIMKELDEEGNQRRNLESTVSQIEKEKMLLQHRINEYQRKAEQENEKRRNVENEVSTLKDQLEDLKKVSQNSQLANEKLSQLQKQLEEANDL

Structure (SMILES)	Ki (ROCK I (AA 6-553)) [µM]	Ki (PKA) [µM]	Ki (Itk) [µM]	Ki (ROCK) [µM]
O=C(Cc1ccc(F)cc1)N(c1nc(-c2c[nH]c3ncccc23)cs1)C1CC1 [II-53]	< 0.5	< 0.5	0.5 to 5	–
O=C(CCS(=O)(=O)c1ccccc1)Nc1nc(-c2c[nH]c3ncc(Br)cc23)cs1 [II-253]	–	< 0.5	0.5 to 5	0.5 to 5
CCN(C(=O)CC1CCCC1)c1nc(-c2c[nH]c3ncc(Br)cc23)cs1 [II-256]	–	–	0.5 to 5	–
O=C(Cc1ccccc1)Nc1nc(-c2c[nH]c3ncccc23)cs1 [I-1]	–	< 0.5	0.5 to 5	–
O=C(Cc1ccccc1)Nc1nc(-c2c[nH]c3ncc(Br)cc23)cs1 [II-79]	< 0.5	< 0.5	0.5 to 5	< 0.5
O=C(CCc1ccccc1)N(c1nc(-c2c[nH]c3ncccc23)cs1)C1CC1 [II-54]	< 0.5	< 0.5	0.5 to 5	–
O=C(Nc1nc(-c2c[nH]c3ncc(Br)cc23)cs1)C1CC1 [II-247]	–	0.5 to 5	0.5 to 5	< 0.5
O=C(CC1CCCC1)Nc1nc(-c2c[nH]c3ncc(Br)cc23)cs1 [II-248]	–	< 0.5	0.5 to 5	0.5 to 5
O=C(Nc1nc(-c2c[nH]c3ncc(Br)cc23)cs1)C1CCOC1 (centres unmarked) [II-252]	–	0.5 to 5	0.5 to 5	< 0.5
O=C(NCC1CCNCC1)c1nc(-c2c[nH]c3ncc(-c4ccccc4)cc23)cs1 [II-245]	–	0.5 to 5	0.5 to 5	< 0.5
O=C(CCc1ccccc1)Nc1nc(-c2c[nH]c3ncc(Br)cc23)cs1 [II-249]	–	0.5 to 5	0.5 to 5	< 0.5
O=C(Cc1ccccc1)N(c1nc(-c2c[nH]c3ncccc23)cs1)C1CC1 [I-20]	< 0.5	< 0.5	0.5 to 5	–
O=C(Cc1ccc(Br)cc1)Nc1nc(-c2c[nH]c3ncc(Br)cc23)cs1 [II-250]	–	< 0.5	0.5 to 5	–
O=C(Nc1nc(-c2c[nH]c3ncc(Br)cc23)cs1)C1Cc2ccccc2C1 [II-246]	–	0.5 to 5	0.5 to 5	< 0.5
O=C(CCC1CCCCC1)Nc1nc(-c2c[nH]c3ncc(Br)cc23)cs1 [II-251]	–	< 0.5	0.5 to 5	0.5 to 5
O=C(CCNC(=O)OCc1ccccc1)Nc1nc(-c2c[nH]c3ncc(Br)cc23)cs1 [II-255]	–	0.5 to 5	0.5 to 5	–
O=C(CCOc1ccccc1)Nc1nc(-c2c[nH]c3ncc(Br)cc23)cs1 [II-254]	–	0.5 to 5	0.5 to 5	< 0.5
CC(C)C(=O)Nc1nc(-c2c[nH]c3ncccc23)cs1 [II-162]	–	0.5 to 5	0.5 to 5	< 0.5
